# Source: paper PMC9331544, “Molecular Physicochemical Properties of Selected Pesticides as Predictive Factors for Oxidative Stress and Apoptosis-Dependent Cell Death in Caco-2 and HepG2 Cells” (International Journal of Molecular Sciences, 2022)
# Entries after “also recorded” stand apart in the source; their conditions may differ. Read-outs that look alike come from different tables or passages of the source.
# Key:
# Caco-2 cells [1] = assay: Lipid peroxidation, DHPE-FITC probe, flow cytometry; assay type: cell-based, human; details: Caco-2, 24 h, tested concentrations
# Experimental: (§1) Lipid peroxidation was evaluated using the DHPE-FITC probe. Cells re-suspended in PBS (see Section 3.3.1) were incubated with 20 μM DHPE-FITC, for 20 min in the dark at room temperature (as describe).
# HepG2 cells [2] = assay: as above; assay type: cell-based, human; details: HepG2, 24 h, tested concentrations
# Experimental: as §1
# Caco-2 cells [3] = assay: Literature: Caco-2 cell viability; assay type: cell-based, human; details: Caco-2, 24 h, ref [34] value vs Table 1
# Caco-2 cells [4] = system: Caco-2 cells; parameters: method as in doi:10.1016/j.envpol.2020.114660; details: Caco-2, 30 µg/mL (~100 µM), fluorescence microscopy; ref [34]; cited from earlier work
# [5] = Alamar Blue cell viability/cytotoxicity assay; assay type: cell-based, human; details: human, mean ± SD (n = 4), read-out: IC50 of pesticide-induced cytotoxicity
# Experimental: (§2) In this study, to assess the cytotoxic activity of GLY, IMD, and IMZ, human epithelial colorectal adenocarcinoma (Caco-2), cell lines service (CLS), (Eppelheim, Germany) and human hepatocellular carcinoma (HepG2) (ATCC, Rockville, Maryland, USA) cells were used. Cells were cultured in complete culture media (Dulbecco’s Modified Eagle Media (DMEM), supplemented with 1 mM L-glutamine, 10% (v/v) foetal bovine serum (FBS), and antibiotics (penicillin at 100 U/mL, and streptomycin at 100 μg/mL)) and maintained at 5% CO2/95% air; 37 °C, controlled humidity, in an incubator. Cells were grown in T25 culture flasks to near confluence. Then, these adherent cells were treated with trypsin (trypsin-EDTA), for detachment and subculture, which was stopped using complete culture medium (1:1, trypsin:culture media) as soon as cells were detached (about 6 and 8 minutes of trypsin treatment for HepG2 and Caco-2 cells, respectively). Detached cells were gently re-suspended with a Pasteur pipette and then a sample was counted using an automated cell counter (TC10™, BIORAD, Portugal). A suspension of cells in fresh culture media, at 5 × 10^4 cells/mL was prepared to seed into 96-well microplates (100 µL/well). After seeding, cells were placed in the incubator for 48 h (to adhere and stabilize) before being used, for other details see [66, 67].
# (§3) Cell viability was assessed using the Alamar Blue® (AB) assay, after exposure to the pesticides. In summary, cells seeded into 96-well microplates were subjected to various concentrations of the pesticides (GLY: 0–1 mM; IMD: 0–1 mM; IMZ: 0–0.3 mM). To prepare the test solutions, the appropriate volume of the pesticide stock solution was diluted in FBS-free culture media just before its application to the cells. Stock solution of GLY was prepared in water (at 40 mM), and stock solutions of IMD and IMZ were prepared in DMSO (at 20 mM). After 24 h or 48 h of exposure, the test solutions were removed and the Alamar Blue solution (100 µL/well; 10% (v/v) in FBS-free medium) was immediately added to the cells, followed by a further 5 h incubation. The absorbance was then read at 570 and 620 nm using a microplate reader (Multiskan EX; MTX Lab Systems, Inc., Bradenton, FL, USA) and the percentage of the AB reduction was calculated according to the manufacturer’s instructions, as described before. Cell viability, at each condition, was calculated and expressed as percentage of control cells (non-exposed cells).
# (§4) The concentrations needed to reduce cell viability by 50% (IC50) were calculated from three independent experiments (each one performed in quadruplicates), as described.
# Caco-2 cells [6] = assay: Alamar Blue cell viability/cytotoxicity assay; assay type: cell-based, human
# Experimental: as §2, §3, §4
# HepG2 cells [7] = assay: Alamar Blue cell viability/cytotoxicity assay; assay type: cell-based, human; details: HepG2
# Experimental: as §2, §3, §4
# [8] = ref [47],[48],[49],[50]; cited from earlier work
# Caco-2 cells [9] = assay: Glutathione (GSH) content, Mercury Orange, flow cytometry; assay type: cell-based, human
# Experimental: (§5) To assess GSH content, cells re-suspended in PBS (see Section 3.3.1) were incubated with 40 μM Mercury Orange (1-(4-chloromercuryphenyl-azo-2-naphtol) for 5 min (in the dark, room temperature), as described by du Plessis, et al..
# HepG2 cells [10] = assay: as above; assay type: cell-based, human
# Experimental: as §5
# Caco-2 cells [11] = assay: Apoptosis/necrosis, Annexin-V-FITC/PI double staining, flow cytometry; assay type: cell-based, human
# Experimental: (§6) The samples where then incubated for 20 min at room temperature. After this period, 5 μL of propidium iodide (PI; at 50 μg/mL) solution were added to each sample 3 min before acquisition.
# HepG2 cells [12] = assay: as above; assay type: cell-based, human; details: HepG2, 24 h, tested concentrations; listed as IMZ
# Experimental: as §6
# Caco-2 cells [13] = assay: Intracellular ROS content, DCFDA, flow cytometry; assay type: cell-based, human; details: 24 h
# Experimental: (§7) To assess pesticides-induced oxidative stress, the intracellular content in reactive oxygen species (ROS), content in glutathione (GSH), and lipid peroxidation was quantified by flow cytometry, following the methods described by Domínguez-Perles, et al. and Queiroz, et al.. Briefly, to assess ROS content, cells re-suspended in PBS (from Section 3.3.1) were centrifuged (5 min, 3000 rpm, bench micro-centrifuge) and, after eliminating the supernatant, 200 μL of 10 µM DCFDA solution (prepared in FBS-free DMEM) was added to each sample. After a 45 min incubation at 37 °C (in the dark, in an incubator), cells were centrifuged to remove excess of probe and re-suspended in PBS. Finally, 5 μL of propidium iodide (PI; 50 μg/mL) was added to each sample 3 min before flow cytometry acquisition.
# HepG2 cells [14] = assay: Intracellular ROS content, DCFDA, flow cytometry; assay type: cell-based, human; details: HepG2, 75 μM, 24 h
# Experimental: as §7
structure (smiles),measurement,setting,value
"C=CCOC(Cn1ccnc1)c1ccc(Cl)cc1Cl (stereo not shown) [Imazalil, imazalil]",lipid peroxidation (LP) vs control (in words),Caco-2 cells [1],induced significant LP
same,lipid peroxidation (LP) vs control (in words),HepG2 cells [2],did not increase lipid peroxidation
same,literature IC50 lower than the IC50 here reported,Caco-2 cells [3],2.53 fold
same,ROS content (in words),Caco-2 cells [4],increase in ROS content
same,IC50 at 24 h,"[5]; Caco-2 cells, Caco-2, 24 h exposure",254 ± 3.37 µM
same,IC50 at 48 h,"[5]; Caco-2 cells, Caco-2, 48 h exposure",187 ± 2 µM
same,IC50 at 24 h,"[5]; HepG2 cells, HepG2, 24 h exposure",94 ± 12 µM
same,IC50 at 48 h,"[5]; HepG2 cells, HepG2, 48 h exposure",47 ± 3 µM
same,IC50 for Caco-2 cells relative to HepG2 cells,Caco-2 cells [6]; 24 h exposure,2.7 fold
same,IC50 for Caco-2 cells relative to HepG2 cells,Caco-2 cells [6]; 48 h exposure,4 fold
same,IC50 at 24 h relative to IC50 at 48 h,Caco-2 cells [6]; Caco-2,1.35 fold
same,IC50,"Caco-2 cells [6]; Caco-2, 24 h exposure, mean ± SD (n = 4), read-out: IC50 of pesticide-induced cytotoxicity",254 ± 3 µM
same,decrease in IC50 when doubling the exposure time (24 h to 48 h),HepG2 cells [7],2 fold
same,H-bond (donor count),[8],0
same,H-donor (acceptor count),[8],2
same,increase in GSH content vs control,"Caco-2 cells [9]; Caco-2, 250 μM, 24 h",1.59 fold
same,change in GSH content vs control (in words),"Caco-2 cells [9]; Caco-2, 24 h, tested concentrations",dose-dependent increase in GSH content
same,increase in GSH content vs control,"HepG2 cells [10]; HepG2, 75 μM, 24 h",1.97 fold
same,change in GSH content vs control (in words),"HepG2 cells [10]; HepG2, 24 h, tested concentrations",dose-dependent increase in GSH content
same,apoptosis/necrosis induction (in words),"Caco-2 cells [11]; Caco-2, 24 h, tested concentrations, listed as IMZ",dose-dependent increase in late apoptosis
same,cells in necrosis,"Caco-2 cells [11]; Caco-2, highest concentration (250 μM), 24 h, Figure 6B",~ 23%
same,apoptosis/necrosis induction (in words),HepG2 cells [12],dose-dependently increased apoptosis; also recorded: no necrotic events recorded
same,increase in ROS content compared with control,"Caco-2 cells [13]; Caco-2, 75 μM",2.40 fold
same,increase in ROS content compared with control,"Caco-2 cells [13]; Caco-2, 250 μM",6.5 fold
same,increase in ROS content compared with control,HepG2 cells [14],4.56 fold
